Source: PMC9353713, “Tumor-targeting cell-penetrating peptide, p28, for glioblastoma imaging and therapy” (Frontiers in Oncology, 2022)

How the values were obtained:
U-118 xenograft = assay: Subcutaneous xenograft tumor growth; type: in vivo, athymic mice; settings: U-118 s.c. xenograft, day 20; TMZ 5 mg/kg, p28 10 mg/kg i.p.; N=7/group
Description: (§1) All animal work was performed under a protocol approved by the University of Illinois at Chicago. Athymic mice at 4-5 weeks old were purchased from The Jackson Laboratory. For orthotopic xenografts, GBM cell lines (LN-229 and U-118) were injected into the cerebral cortex. Following anesthesia, cancer cell suspensions at 5x10^5 cells/3μl were stereotactically injected (2 mm lateral to the sagittal suture, 1 mm anterior to the coronal suture, 3 mm depth) using a Koft model 963 stereotactic apparatus with a 31-gauge Hamilton syringe. After injection, the injection site was covered with sterile bone wax. Tumor growth was monitored by MR imaging. For tumor growth study, GBM cell lines (LN-229 and U-118) at 1.0x10^6 cell/mouse were subcutaneously (s.c.) implanted into the right flank of athymic mice ([22]). When tumors reached 3 mm in diameter, animals were randomized into several groups; PBS (control), TMZ 5 mg/kg (25.7 μmol/kg) 5 injections on Day1-5, and p28 10 mg/kg (3.4 μmol/kg) 3 times weekly, i.p. Body weight was determined 3 times weekly. The tumor volume in each animal was assessed by calipers and calculated 3 times weekly.
(§2) Data processing and statistical analysis were performed using GraphPad Prism. ANOVA test was performed for tumor growth analysis, and P<0.05 was considered statistically significant.

LN-229 xenograft = assay: Subcutaneous xenograft tumor growth; type: in vivo, athymic mice; settings: LN-229 s.c. xenograft, day 20; TMZ 5 mg/kg Day1-5, p28 10 mg/kg 3 times weekly, i.p.; N=5/group; P<0.001
Description: as §1, §2

[1] = Body weight in xenograft study; type: in vivo, athymic mice; settings: U-118 xenograft mice, over four weeks of i.p. treatment
Description: as §1

U-118 = assay: Cytotoxicity, MTT assay; type: cell-based, human; settings: U-118, 1 mM, 72 hr, N=3, P<0.001
Description: (§3) Cytotoxicity was evaluated by the MTT assay as described previously ([21], [22]). Cells seeded in 96-well plates were exposed to TMZ at various concentrations for 72 hr (N=3 in each concentration). Curves were fitted using GraphPad PRISM (version 5.0) as a function of a nonlinear one-phase decay (maximum iterations: 1,000, Cl: 95%).

LN-229 = assay: Cytotoxicity, MTT assay; type: cell-based, human; settings: LN-229, 1 mM, 72 hr, N=3, P<0.001
Description: as §3

## Cn1nnc2c(C(N)=O)ncn2c1=O [TMZ, temozolomide]
U-118 xenograft
  reduction of tumor growth: 24.5%
LN-229 xenograft
  reduction in tumor growth compared to the PBS control group: 42.4%
[1]
  body weight: 29.0 ± 0.8 g
U-118
  reduction (antiproliferative effect, MTT): 36.6%
LN-229
  reduction (antiproliferative effect, MTT): 53.2%
